Among the data in PubChem BioAssay (NCI) are GI50 and TGI values, retold here.

Test systems include OVCAR-8 ovarian; K-562 leukemia; U251 CNS; SNB-75 CNS; NCI-H226 lung; DU-145 prostate; SF-539 CNS; HL-60(TB) leukemia; NCI-H23 lung; HT29 colon.
Common to all, as to assay: inhibition of tumour cell growth, NCI panel, 48 h

“And” between values parts separate entries of the source, which are not always exact repeats. Equal values may be shown once.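 Following 48 hours of exposure in 96-well plates, responses at five concentrations were used to interpolate endpoints linearly. GI50 is the concentration that inhibits growth by half. TGI: total growth inhibition.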

As for `Cc1cc(NC(=O)C2c3ccccc3C(=O)N(CC(C)C)C2c2cccs2)no1` (centres undefined), the GI50 is above 100 µM in the assay with OVCAR-8 ovarian; 50.9 µM in the assay with K-562 leukemia; 84.2 µM in the assay with U251 CNS; 10.5 µM in the assay with SNB-75 CNS; above 100 µM in the assay with NCI-H226 lung; above 100 µM with DU-145 prostate. Further, the GI50 in the assay with SF-539 CNS was above 100 µM; in the assay with HL-60(TB) leukemia it was 39 µM; in the assay with NCI-H23 lung it was above 100 µM; in the assay with HT29 colon, 69.5 µM. For the same compound, the TGI in the assay with OVCAR-8 ovarian, with K-562 leukemia, in the assay on U251 CNS, with SNB-75 CNS, in the assay on NCI-H226 lung and with DU-145 prostate was above 100 µM in each case. The TGI in the assay on SF-539 CNS, in the assay with HL-60(TB) leukemia, in the assay on NCI-H23 lung and in the assay on HT29 colon was above 100 µM throughout.
As to `Nc1cccc2c1C(=O)N(C1CCC(=O)NC1=O)C2=O` (centres undefined), the GI50 with OVCAR-8 ovarian, in the assay on K-562 leukemia, in the assay with U251 CNS, with SNB-75 CNS, in the assay on NCI-H226 lung and with DU-145 prostate was above 100 µM throughout. In addition, the GI50 in the assay with SF-539 CNS, in the assay on HL-60(TB) leukemia, in the assay with NCI-H23 lung and in the assay on HT29 colon was above 100 µM throughout. Further, the TGI in the assay with OVCAR-8 ovarian, with K-562 leukemia, in the assay with U251 CNS, with SNB-75 CNS, in the assay with NCI-H226 lung and in the assay on DU-145 prostate was above 100 µM throughout. For the same compound, the TGI in the assay with SF-539 CNS, with HL-60(TB) leukemia, in the assay with NCI-H23 lung and in the assay with HT29 colon was above 100 µM in each case.
`Cc1cc2c(C)c3cc(C)c(N)cc3nc2cc1N`: the GI50 is 0.499 µM in the assay on OVCAR-8 ovarian; 0.548 µM in the assay with K-562 leukemia; 0.648 µM in the assay on U251 CNS; 1.14 µM with SNB-75 CNS; 0.864 µM in the assay on NCI-H226 lung; 0.749 µM in the assay on DU-145 prostate. The GI50 was 0.455 µM in the assay with SF-539 CNS, 3 µM in the assay on HL-60(TB) leukemia, 0.852 µM in the assay on NCI-H23 lung and 0.373 µM with HT29 colon. In addition, the TGI came to 7.54 µM with OVCAR-8 ovarian; 4.96 µM in the assay with K-562 leukemia; 5.72 µM with U251 CNS; 4.94 µM with SNB-75 CNS; 4.56 µM with NCI-H226 lung; 5.3 µM in the assay with DU-145 prostate. Moreover, the TGI in the assay with SF-539 CNS was 3.48 µM; in the assay with HL-60(TB) leukemia, 10.1 µM; in the assay with NCI-H23 lung, 4.28 µM; with HT29 colon it was 2.09 µM.
Regarding `O=c1c(Cl)nnc2sc3ccccc3n12`, the GI50 in the assay on OVCAR-8 ovarian was 40.8 µM; with K-562 leukemia, 26 µM; in the assay on U251 CNS, 30.9 µM; in the assay with SNB-75 CNS, above 100 µM; with NCI-H226 lung it was 43.1 µM; in the assay on DU-145 prostate, 57 µM. Moreover, the GI50 in the assay on SF-539 CNS is 37.5 µM; in the assay on HL-60(TB) leukemia, 18.3 µM; with NCI-H23 lung, 25.2 µM; in the assay on HT29 colon, 53.7 µM. The TGI in the assay with OVCAR-8 ovarian was above 100 µM; in the assay on K-562 leukemia, above 100 µM; with U251 CNS it was 85.3 µM; in the assay on SNB-75 CNS, above 100 µM; in the assay on NCI-H226 lung it was above 100 µM; in the assay on DU-145 prostate, above 100 µM. Moreover, the TGI with SF-539 CNS, in the assay on HL-60(TB) leukemia, with NCI-H23 lung and in the assay with HT29 colon was above 100 µM each time.
Turning to `OB([O][Hg][c]1ccccc1)[O][Hg][c]1ccccc1`, the GI50 in the assay with OVCAR-8 ovarian is 0.522 µM; in the assay with K-562 leukemia, 0.234 µM; in the assay with U251 CNS, 0.507 µM; in the assay with SNB-75 CNS, 0.291 µM; with NCI-H226 lung, 1.52 µM; with DU-145 prostate, 0.873 µM. Moreover, the GI50 in the assay with SF-539 CNS was 1.09 µM; in the assay on HL-60(TB) leukemia it was 0.0886 µM; with NCI-H23 lung, 0.784 µM; in the assay on HT29 colon, 0.384 µM. In addition, the TGI in the assay on OVCAR-8 ovarian is 3.53 µM; in the assay with K-562 leukemia, 4.96 µM; with U251 CNS, 1.89 µM; in the assay on SNB-75 CNS, 1.36 µM; with NCI-H226 lung, 4.33 µM; in the assay on DU-145 prostate it was 2.29 µM. In addition, the TGI was 2.34 µM in the assay on SF-539 CNS, 0.378 µM in the assay on HL-60(TB) leukemia, 2.17 µM in the assay with NCI-H23 lung and 1.75 µM in the assay with HT29 colon.
On to `CCOC(=O)CCC(NC(=O)c1ccc(N=Cc2nc3cc(C(F)(F)F)ccc3nc2-c2ccccc2)cc1)C(=O)OCC` (centres undefined), for which the GI50 in the assay with OVCAR-8 ovarian is above 100 µM; in the assay on K-562 leukemia it was above 100 µM; with U251 CNS, 9.75 µM; in the assay on SNB-75 CNS, 3.64 µM; with NCI-H226 lung, above 100 µM; in the assay with SF-539 CNS, 6.03 µM. For the same compound, the GI50 in the assay with HL-60(TB) leukemia was 65.3 µM; in the assay on NCI-H23 lung, 28.9 µM; in the assay with HT29 colon, above 100 µM. Moreover, the TGI in the assay with OVCAR-8 ovarian is 27.4 µM and > 100 µM; in the assay on K-562 leukemia, above 100 µM; with U251 CNS, 19.4 µM and 57.1 µM; with SNB-75 CNS, 13 µM and 14.1 µM; with NCI-H226 lung, above 100 µM; in the assay on DU-145 prostate, 50 µM. In addition, the TGI in the assay with SF-539 CNS is 45.7 µM and 28.4 µM; with HL-60(TB) leukemia, 50 µM and > 100 µM; in the assay with NCI-H23 lung, 21.6 µM and > 100 µM; in the assay with HT29 colon it was above 100 µM.
Turning to `Nc1nc(N)[n+]([O-])c(N)c1NCO`, the TGI with OVCAR-8 ovarian, in the assay with K-562 leukemia, with U251 CNS, in the assay with SNB-75 CNS, in the assay on NCI-H226 lung and in the assay on DU-145 prostate was above 100 µM in each case. Moreover, the TGI in the assay on SF-539 CNS, with HL-60(TB) leukemia, in the assay with NCI-H23 lung and in the assay on HT29 colon was above 100 µM in each case.
